The record followed here is the supplement of paper PMC10307832.

In the first assay the test system is NCI-H1975. Briefly: relative viability (nuclei count vs DMSO), 5 days (fraction); higher = more cells survive. To be noted: first compound 0.8 µM. The gist of the method:
(§1)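 Dosing by pin tool came one day after lung cancer cell lines were seeded in 1536-well plates, using either one drug or a fixed anchor-drug dose plus five library-drug doses (not always all listed) in √10 steps. After 5 days, nuclei were counted on 4× images. Relative viability is treated-well nuclei count divided by vehicle-well nuclei count, and values are medians of duplicate plates.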
In turn, `Nc1cccc2c1CN(C1CCC(=O)NC1=O)C2=O` (configuration not stated) [Lenalidomide] + Nc1nc2[nH]cc(CCc3ccc(C(=O)N[C@@H](CCC(=O)O)C(=O)O)cc3)c2c(=O)[nH]1 [Pemetrexed] (partner 0.2 µM) displayed a relative viability of 0.303.
Same read-out and setting: with `Nc1cccc2c1CN(C1CCC(=O)NC1=O)C2=O` (configuration not stated) [Lenalidomide] + CC(=O)c1c(C)c2cnc(Nc3ccc(N4CCNCC4)cn3)nc2n(C2CCCC2)c1=O [Palbociclib] (partner 0.5 µM) the figure was 0.312; with `Nc1cccc2c1CN(C1CCC(=O)NC1=O)C2=O` (configuration not stated) [Lenalidomide] + O=C(CCCCCCC(=O)Nc1ccccc1)NO [Vorinostat] (partner 1 µM), 0.768.
Regarding `Nc1cccc2c1CN(C1CCC(=O)NC1=O)C2=O` (configuration not stated) [Lenalidomide] + COc1cccc2cc(-c3nc([C@H]4CC[C@H](C(=O)O)CC4)n4ncnc(N)c34)[nH]c12 [OSI-027] (partner 0.5 µM), the relative viability is 0.661.

Still in this assay, the particulars now being: first compound 2.53 µM.
For the molecule `Nc1cccc2c1CN(C1CCC(=O)NC1=O)C2=O` (configuration not stated) [Lenalidomide] + Nc1ncn([C@H]2C[C@H](O)[C@@H](CO)O2)c(=O)n1 [Decitabine] (partner 2 µM), the relative viability is 0.421.
Take `Nc1cccc2c1CN(C1CCC(=O)NC1=O)C2=O` (configuration not stated) [Lenalidomide] + N=C(N)NC(=N)NCCc1ccccc1 [Phenformin] (partner 250 µM): the relative viability is 0.474.
On the same count and under the same terms, with `Nc1cccc2c1CN(C1CCC(=O)NC1=O)C2=O` (configuration not stated) [Lenalidomide] + Nc1nc2[nH]cc(CCc3ccc(C(=O)N[C@@H](CCC(=O)O)C(=O)O)cc3)c2c(=O)[nH]1 [Pemetrexed] (partner 0.2 µM) the figure was 0.322; with `Nc1cccc2c1CN(C1CCC(=O)NC1=O)C2=O` (configuration not stated) [Lenalidomide] + CC(=O)c1c(C)c2cnc(Nc3ccc(N4CCNCC4)cn3)nc2n(C2CCCC2)c1=O [Palbociclib] (partner 0.5 µM), 0.711.
Still for that read-out and setting: the result for `Nc1cccc2c1CN(C1CCC(=O)NC1=O)C2=O` (configuration not stated) [Lenalidomide] + O=C(CCCCCCC(=O)Nc1ccccc1)NO [Vorinostat] (partner 1 µM) reads 0.736; that for `Nc1cccc2c1CN(C1CCC(=O)NC1=O)C2=O` (configuration not stated) [Lenalidomide] + COc1cccc2cc(-c3nc([C@H]4CC[C@H](C(=O)O)CC4)n4ncnc(N)c34)[nH]c12 [OSI-027] (partner 0.5 µM), 0.79.

Still in this assay, the particulars now being: first compound 8 µM.
Turning to `Nc1cccc2c1CN(C1CCC(=O)NC1=O)C2=O` (configuration not stated) [Lenalidomide] + Nc1ncn([C@H]2C[C@H](O)[C@@H](CO)O2)c(=O)n1 [Decitabine] (partner 2 µM), the relative viability was determined as 0.356.
The same measure, in the same setting: with `Nc1cccc2c1CN(C1CCC(=O)NC1=O)C2=O` (configuration not stated) [Lenalidomide] + N=C(N)NC(=N)NCCc1ccccc1 [Phenformin] (partner 250 µM) the figure was 0.336.
Still for that read-out and setting: the result for `Nc1cccc2c1CN(C1CCC(=O)NC1=O)C2=O` (configuration not stated) [Lenalidomide] + Nc1nc2[nH]cc(CCc3ccc(C(=O)N[C@@H](CCC(=O)O)C(=O)O)cc3)c2c(=O)[nH]1 [Pemetrexed] (partner 0.2 µM) reads 0.332.
Still for that read-out and setting: the result for `Nc1cccc2c1CN(C1CCC(=O)NC1=O)C2=O` (configuration not stated) [Lenalidomide] + CC(=O)c1c(C)c2cnc(Nc3ccc(N4CCNCC4)cn3)nc2n(C2CCCC2)c1=O [Palbociclib] (partner 0.5 µM) reads 0.399.
On to `Nc1cccc2c1CN(C1CCC(=O)NC1=O)C2=O` (configuration not stated) [Lenalidomide] + O=C(CCCCCCC(=O)Nc1ccccc1)NO [Vorinostat] (partner 1 µM), for which the relative viability came to 0.744.
On the same count and under the same terms, the result for `Nc1cccc2c1CN(C1CCC(=O)NC1=O)C2=O` (configuration not stated) [Lenalidomide] + COc1cccc2cc(-c3nc([C@H]4CC[C@H](C(=O)O)CC4)n4ncnc(N)c34)[nH]c12 [OSI-027] (partner 0.5 µM) reads 0.595.

In another assay the test system is NCI-H2009. The assay is described as above. To be noted: first compound 0.253 µM. The gist of the method: as §1
The molecule `Nc1cccc2c1CN(C1CCC(=O)NC1=O)C2=O` (configuration not stated) [Lenalidomide] + Nc1ncn([C@H]2C[C@H](O)[C@@H](CO)O2)c(=O)n1 [Decitabine] (partner 2 µM) showed a relative viability of 0.415.
`Nc1cccc2c1CN(C1CCC(=O)NC1=O)C2=O` (configuration not stated) [Lenalidomide] + N=C(N)NC(=N)NCCc1ccccc1 [Phenformin] (partner 250 µM) yielded a relative viability of 0.454.
The same measure, in the same setting: with `Nc1cccc2c1CN(C1CCC(=O)NC1=O)C2=O` (configuration not stated) [Lenalidomide] + Nc1nc2[nH]cc(CCc3ccc(C(=O)N[C@@H](CCC(=O)O)C(=O)O)cc3)c2c(=O)[nH]1 [Pemetrexed] (partner 0.2 µM) the figure was 0.988; with `Nc1cccc2c1CN(C1CCC(=O)NC1=O)C2=O` (configuration not stated) [Lenalidomide] + CC(=O)c1c(C)c2cnc(Nc3ccc(N4CCNCC4)cn3)nc2n(C2CCCC2)c1=O [Palbociclib] (partner 0.5 µM), 0.206; with `Nc1cccc2c1CN(C1CCC(=O)NC1=O)C2=O` (configuration not stated) [Lenalidomide] + O=C(CCCCCCC(=O)Nc1ccccc1)NO [Vorinostat] (partner 1 µM), 0.686.
For `Nc1cccc2c1CN(C1CCC(=O)NC1=O)C2=O` (configuration not stated) [Lenalidomide] + COc1cccc2cc(-c3nc([C@H]4CC[C@H](C(=O)O)CC4)n4ncnc(N)c34)[nH]c12 [OSI-027] (partner 0.5 µM), the relative viability was determined as 0.627.

Still in this assay, the particulars now being: first compound 0.8 µM.
In turn, `Nc1cccc2c1CN(C1CCC(=O)NC1=O)C2=O` (configuration not stated) [Lenalidomide] + Nc1ncn([C@H]2C[C@H](O)[C@@H](CO)O2)c(=O)n1 [Decitabine] (partner 2 µM) came in with a relative viability of 0.387.
On the same count and under the same terms, the result for `Nc1cccc2c1CN(C1CCC(=O)NC1=O)C2=O` (configuration not stated) [Lenalidomide] + N=C(N)NC(=N)NCCc1ccccc1 [Phenformin] (partner 250 µM) reads 0.517; that for `Nc1cccc2c1CN(C1CCC(=O)NC1=O)C2=O` (configuration not stated) [Lenalidomide] + Nc1nc2[nH]cc(CCc3ccc(C(=O)N[C@@H](CCC(=O)O)C(=O)O)cc3)c2c(=O)[nH]1 [Pemetrexed] (partner 0.2 µM), 1.05.
Same read-out and setting: with `Nc1cccc2c1CN(C1CCC(=O)NC1=O)C2=O` (configuration not stated) [Lenalidomide] + CC(=O)c1c(C)c2cnc(Nc3ccc(N4CCNCC4)cn3)nc2n(C2CCCC2)c1=O [Palbociclib] (partner 0.5 µM) the figure was 0.232; with `Nc1cccc2c1CN(C1CCC(=O)NC1=O)C2=O` (configuration not stated) [Lenalidomide] + O=C(CCCCCCC(=O)Nc1ccccc1)NO [Vorinostat] (partner 1 µM), 0.72.
The molecule `Nc1cccc2c1CN(C1CCC(=O)NC1=O)C2=O` (configuration not stated) [Lenalidomide] + COc1cccc2cc(-c3nc([C@H]4CC[C@H](C(=O)O)CC4)n4ncnc(N)c34)[nH]c12 [OSI-027] (partner 0.5 µM) returned a relative viability of 0.64.

The same assay, now with this note: first compound 2.53 µM.
In turn, `Nc1cccc2c1CN(C1CCC(=O)NC1=O)C2=O` (configuration not stated) [Lenalidomide] + Nc1ncn([C@H]2C[C@H](O)[C@@H](CO)O2)c(=O)n1 [Decitabine] (partner 2 µM) had a relative viability of 0.406.
On the same count and under the same terms, the result for `Nc1cccc2c1CN(C1CCC(=O)NC1=O)C2=O` (configuration not stated) [Lenalidomide] + N=C(N)NC(=N)NCCc1ccccc1 [Phenformin] (partner 250 µM) reads 0.518.
Still for that read-out and setting: the result for `Nc1cccc2c1CN(C1CCC(=O)NC1=O)C2=O` (configuration not stated) [Lenalidomide] + Nc1nc2[nH]cc(CCc3ccc(C(=O)N[C@@H](CCC(=O)O)C(=O)O)cc3)c2c(=O)[nH]1 [Pemetrexed] (partner 0.2 µM) reads 1; that for `Nc1cccc2c1CN(C1CCC(=O)NC1=O)C2=O` (configuration not stated) [Lenalidomide] + CC(=O)c1c(C)c2cnc(Nc3ccc(N4CCNCC4)cn3)nc2n(C2CCCC2)c1=O [Palbociclib] (partner 0.5 µM), 0.218.
